Measurements reported in patent US9133164B2, “MIF inhibitors and their uses” (INNOV88 LLC, priority 2011, dated 2015).
Read-outs that look alike come from different tables or passages of the source.

What was measured:
LPS-stimulated PBMCs = test: Cytokine production in LPS-stimulated human PBMCs (ELISA); assay type: cell-based; details: LPS-stimulated PBMCs, 20 hours; for inhibition at 2.5 µM / inhibition at 25 µM: Homo sapiens, PBMC, 1 hour preincubation; for inhibition at 2.5 µM: compound at 2.5 uM; for inhibition at 25 µM: compound at 25 uM
From the text: (§1) MIF is secreted by monocytes/macrophages, activated T cells and several effector cells that play an important role in the perpetuation of inflammatory responses of the disease pathogenesis of several autoimmune and inflammatory disorders. MIF promotes the production of proinflammatory mediators such as tumor necrosis factor-α (TNF-α), interleukin (IL)-1β, IL-6 and IL-8 acting in an autocrine and paracrine function in the induction of proinflammatory responses. MIF has also been reported to stimulate the production of IL-17, a T helper 17 (Th17)-specific cytokine critical to the pathogenesis of several autoimmune and inflammatory diseases. […] Mono-Mac-6 Cells: The cellular efficacy of compound candidates is determined using the human monocytic cell line, Mono-Mac-6 cells (MM6 cells) as it has been shown that MM6 cells abundantly express MIF receptors CD74 and CXCR4. MIF-mediated signal transduction through these receptors may be important for the production of inflammatory mediators, including TNF-α, IL-1β, IL-6, IL-8, interferon-γ (IFN-γ) and prostaglandin E2 (PGE2) in these cells. To induce the production of inflammatory mediators, MM6 cells will be plated at a final concentration of 5×10^5 cells/ml in RPMI 1640 medium containing 1% heat-inactivated low-pyrogen fetal bovine serum, 2 mM GlutaMAX-I, 1% non-essential amino acids, 1% sodium pyruvate, 100 units/ml penicillin G and 100 μg/ml streptomycin (Gibco BRL Life Technologies). Cells will be stimulated with 100 ng/ml rhMIF purchased commercially or generated in house with or without inhibitor for 20 h at 37° C. with 5% CO2. The supernatants are stored at […] until they are to be assayed. The levels of inflammatory mediators will be determined using commercial :ELISA kits (eBiosciences). Human Peripheral Blood Mononuclear Cells (PBMCs): The cellular efficacy of compound candidates in inhibiting the production of proinflammatory mediators TNF-α, IL-1β, IL-6 and IL-8 following lipopolysaccharide (LPS) and rhMIF stimulation, and the production of T helper 17 (Th17)-specific cytokines IL-17F and IL-22 following anti-CD3/anti-CD28 stimulation, are determined in human PBMCs. To induce the production of proinflammatory cytokine mediators, cryopreserved human PBMCs (Cellular Technology Ltd.) are plated at a final concentration of 2×10^5 cells/ml in RPMI 1640 medium containing 1% heat-inactivated fetal bovine serum, 1% L-Glutamine and 1% Penicillin/Streptomycin (Lonza). Cells are pre-incubated with or without inhibitor compounds dissolved in DMSO for 1 hour, then stimulated with LPS (Sigma Aldrich) or rhMIF to yield final concentrations of <0.1% DMSO, 100 ng/ml LPS and the compound concentration of interest. The potency of the compound candidates in inhibiting cytokine production is compared, to other small molecule MIF inhibitor standards ISO-1 (EMD Chemicals) N-acetyl-p-benzoquinone imine (NAPQI) and Ibudilast (TCI America). Cells were incubated for 20 hours at 37° C., 5% CO2. For the Th17-specific cytokine production assay, cells are stimulated with 5 ug/mL plate immobilized anti-CD3 (eBioscience) and 2 ug/mL soluble anti-CD28 (eBioscience) in the presence or absence of inhibitor compounds dissolved in DMSO to yield final compound concentrations of interest at <0.1% DMSO. Cells were incubated for 72 hours at 37° C. and 5% CO2. The supernatants are stored at −20° C. until they are to be assayed by ELISA. Cell viability is determined using PrestoBlue™ Cell Viability Reagent (Invitrogen). The cytokine production levels of TNF-α, IL-1β, IL-6, IL-8, IL-17F and IL-22 are determined using commercial ELISA kits (eBiosciences). Human Rheumatoid Arthritis Synovial Fibroblast (RASF) Cell Line: RASF cells are cultured in Dulbecco's modified Eagle's medium with 15% FBS, 1% glutamine, and 1% penicillin/streptamycin (all from Gibco (Invitrogen), Gaithersburg, Md.). […]

Native human MIF = target: T1, Native human MIF (Homo sapiens, UniProt P14174); test: MIF tautomerase activity assay (HPP substrate); assay type: biochemical; details: absorbance at 300 nm
T1 sequence (P14174 2-115 limits assumed): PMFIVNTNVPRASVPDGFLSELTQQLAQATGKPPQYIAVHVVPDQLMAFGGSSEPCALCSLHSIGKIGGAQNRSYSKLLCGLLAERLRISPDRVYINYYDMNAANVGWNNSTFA
Protocol: The ability of candidate compounds to inhibit this tautomerase activity is quantitated by wing hydroxyphenyl pyruvic acid (HPP) as a substrate and following the increase in absorbance due to the enzymatic formation of the HPP enol-borate complex at 300 nm in the absence and presence of a test compound. The IC50 value of compounds was determined by plotting the initial velocities determined at 300 nm as a function of a test compound's concentration. Assays were carried out in a 96 or 384 well plate format.
Representative MIF inhibitors were tested in the assay described above and the results tabulated in Table 1 wherein “A” represents ≦1 μM; “B” represents >1 μM and ≦100 μM; “C” represents >100 μM

[1] = system: anti-CD3/anti-CD28-stimulated PBMCs; test: Th17-specific cytokine production in anti-CD3/anti-CD28-stimulated human PBMCs (ELISA); assay type: cell-based; details: PBMC, compound at 2.5 uM, 72 hours
From the text: as §1, with “Cells are pre-incubated with or without inhibitor compounds dissolved in DMSO for 1 hour, then stimulated with LPS (Sigma Aldrich) or rhMIF to yield final concentrations of <0.1% DMSO, 100 ng/ml LPS and the compound concentration of interest. The potency of the compound candidates in inhibiting cytokine production is compared, to other small molecule MIF inhibitor standards ISO-1 (EMD Chemicals) N-acetyl-p-benzoquinone imine (NAPQI) and Ibudilast (TCI America). Cells were incubated for 20 hours at 37° C., 5% CO2. For the Th17-specific cytokine production assay, cells are stimulated with 5 ug/mL plate immobilized anti-CD3 (eBioscience) and 2 ug/mL soluble anti-CD28 (eBioscience) in the presence or absence of inhibitor compounds dissolved in DMSO to yield final compound concentrations of interest at <0.1% DMSO. Cells were incubated for 72 hours at 37° C. and 5% CO2. The supernatants are stored at −20° C. until they are to be assayed by ELISA.” left out, “(eBiosciences).” for “(eBiosciences). Human Rheumatoid Arthritis Synovial Fibroblast (RASF) Cell Line: RASF cells are cultured in Dulbecco's modified Eagle's medium with 15% FBS, 1% glutamine, and 1% penicillin/streptamycin (all from Gibco (Invitrogen), Gaithersburg, Md.).”

[2] = read-out: percent inhibition of IL-1β production
[3] = read-out: percent inhibition of IL-6 production
[4] = read-out: percent inhibition of IL-8 production
[5] = read-out: percent inhibition of TNF-α production

IC50 (Native human MIF)	SMILES	inhibition at 2.5 µM (LPS-stimulated PBMCs; [2])	inhibition at 2.5 µM (LPS-stimulated PBMCs; [3])	inhibition at 2.5 µM (LPS-stimulated PBMCs; [4])	inhibition at 2.5 µM (LPS-stimulated PBMCs; [5])	inhibition at 25 µM (LPS-stimulated PBMCs; [2])	inhibition at 25 µM (LPS-stimulated PBMCs; [3])	inhibition at 25 µM (LPS-stimulated PBMCs; [4])	inhibition at 25 µM (LPS-stimulated PBMCs; [5])	inhibition at 2.5 µM ([1]; read-out: percent inhibition of IL-17F production)	inhibition at 2.5 µM ([1]; read-out: percent inhibition of IL-22 production)	percent inhibition of IL-1β production (LPS-stimulated PBMCs; ISO-1 at 5.0 uM)	percent inhibition of IL-6 production (LPS-stimulated PBMCs; ISO-1 at 5.0 uM)	percent inhibition of IL-8 production (LPS-stimulated PBMCs; ISO-1 at 5.0 uM)	percent inhibition of TNF-α production (LPS-stimulated PBMCs; ISO-1 at 5.0 uM)	percent inhibition of IL-1β production (LPS-stimulated PBMCs; ISO-1 at 50 uM)	percent inhibition of IL-6 production (LPS-stimulated PBMCs; ISO-1 at 50 uM)	percent inhibition of IL-8 production (LPS-stimulated PBMCs; ISO-1 at 50 uM)	percent inhibition of TNF-α production (LPS-stimulated PBMCs; ISO-1 at 50 uM)
≤ 1000 nM	Cn1c(=O)c(C#N)c(NC2CN(C(=O)c3cccs3)C2)c2ccccc21 [Compound 6]	10 to 50%	10 to 50%	< 10%	10 to 50%	10 to 50%	10 to 50%	< 10%	10 to 50%										
> 100000 nM	C=CC(=O)N1CC(Nc2c(C#N)c(=O)n(CCOCC)c3ccccc23)C1 [Compound 3, 4-(1-Acryloyl-azetidin-3-ylamino)-1-(2-ethoxy-ethyl)-2-oxo-1,2-dihydro-quinoline-3-carbonitrile]	50 to 70%	< 10%	< 10%	< 10%	10 to 50%	< 10%	< 10%	10 to 50%										
1000 to 100000 nM	C=CC(=O)N1CCN(c2c(C#N)c(=O)n(Cc3ccc(F)cc3)c3ccccc23)CC1 [Compound 2, 4-(4-acryloylpiperazin-1-yl)-1-(4-fluorobenzyl)-2-oxo-1,2-dihydroquinoline-3-carbonitrile]	> 70%	< 10%	< 10%	10 to 50%	> 70%	< 10%	< 10%	> 70%	> 70%	10 to 50%								
≤ 1000 nM	N#Cc1c(NC2CN(C(=O)c3cccs3)C2)c2ccccc2n(Cc2ccc(F)cc2)c1=O [Compound 8]	50 to 70%	< 10%	< 10%	10 to 50%	> 70%	10 to 50%	< 10%	10 to 50%										
	COC(=O)CC1CC(c2ccc(O)cc2)=NO1 (stereo not shown) [ISO-1, reference compound]											F (“F” represents >50% inhibition and ≦70% inhibition)	D (“D” represents ≦10% inhibition)	D (“D” represents ≦10% inhibition)	E (“E” represents >10% inhibition and ≦50% inhibition)	G (“G” represents >70% inhibition)	F (“F” represents >50% inhibition and ≦70% inhibition)	E (“E” represents >10% inhibition and ≦50% inhibition)	G (“G” represents >70% inhibition)
